Patent US20240425938A1, “COMPOSITIONS AND METHODS FOR CHAR[…] FREQUENCY MUTATIONS” (The Broad Institute, Inc., priority 2022, published 2024)

Test system: P. aeruginosa isolates
Type: cell-based, Pseudomonas aeruginosa

Compound	Antibiotic resistance profile of isolates
CC(C)(O/N=C(\C(=O)N[C@@H]1C(=O)N2C(C(=O)[O-])=C(C[n+]3ccccc3)CS[C@H]12)c1csc(N)n1)C(=O)O [ceftazidime]	resistance
C[C@@H](O)[C@H]1C(=O)N2C(C(=O)O)=C(S[C@@H]3CN[C@H](C(=O)N(C)C)C3)[C@H](C)[C@H]12 [meropenem]	resistance
